Reference: patent US20240327417A1, “HETEROCYCLIC COMPOUNDS” (BeiGene Switzerland GmbH, priority 2021, published 2024)

How the values were obtained:
[1] = target: T1, Full length DGKα (D21-10BG, SignalChem) (Homo sapiens, UniProt P23743); test: Biochemical DGK IC50 assay (ADP-Glo, lipid micelle substrate), DGKα; conditions: 7.5 nM enzyme, 140 μM ATP, 80 μM DAG, 1 hour preincubation, 1 hour reaction, room temperature, read-out: IC50s for DGKα
T1 construct: Full length DGKα (D21-10BG, SignalChem); purchased SignalChem D21-10BG
Summary of the method: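 Full-length enzyme was assayed by ADP-Glo on DAG/PS lipid micelles at room temperature in HEPES/MgCl2/CaCl2 buffer with BSA, Na3VO4 and Tween-20, using a 1 h reaction and luminescence read-out.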

[2] = target: T2, Full length DGKζ (in-house protein M1-V929) (Homo sapiens, UniProt Q13574); test: Biochemical DGK IC50 assay (ADP-Glo, lipid micelle substrate), DGKζ; conditions: 0.5 nM enzyme, 140 μM ATP, 80 μM DAG, 1 hour preincubation, 1 hour reaction, room temperature, read-out: IC50s for DGKζ
T2 construct: His (N); TEV cleavage site (N); made in house; host or cells: Sf9 insect cells (baculovirus, Bac-to-Bac)
Summary of the method: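 In-house full-length human DGKζ, baculovirus-expressed in Sf9 cells, was assayed with a DAG/PS lipid micelle substrate at room temperature. Buffer was 50 mM HEPES, 10 mM MgCl2, 0.01% BSA, 0.1 mM Na3VO4, 0.005% Tween-20, 0.01 mM CaCl2, with final compound 1.55˜10000 nM or 23.3˜150000 nM.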

T1 sequence (P23743 whole entry): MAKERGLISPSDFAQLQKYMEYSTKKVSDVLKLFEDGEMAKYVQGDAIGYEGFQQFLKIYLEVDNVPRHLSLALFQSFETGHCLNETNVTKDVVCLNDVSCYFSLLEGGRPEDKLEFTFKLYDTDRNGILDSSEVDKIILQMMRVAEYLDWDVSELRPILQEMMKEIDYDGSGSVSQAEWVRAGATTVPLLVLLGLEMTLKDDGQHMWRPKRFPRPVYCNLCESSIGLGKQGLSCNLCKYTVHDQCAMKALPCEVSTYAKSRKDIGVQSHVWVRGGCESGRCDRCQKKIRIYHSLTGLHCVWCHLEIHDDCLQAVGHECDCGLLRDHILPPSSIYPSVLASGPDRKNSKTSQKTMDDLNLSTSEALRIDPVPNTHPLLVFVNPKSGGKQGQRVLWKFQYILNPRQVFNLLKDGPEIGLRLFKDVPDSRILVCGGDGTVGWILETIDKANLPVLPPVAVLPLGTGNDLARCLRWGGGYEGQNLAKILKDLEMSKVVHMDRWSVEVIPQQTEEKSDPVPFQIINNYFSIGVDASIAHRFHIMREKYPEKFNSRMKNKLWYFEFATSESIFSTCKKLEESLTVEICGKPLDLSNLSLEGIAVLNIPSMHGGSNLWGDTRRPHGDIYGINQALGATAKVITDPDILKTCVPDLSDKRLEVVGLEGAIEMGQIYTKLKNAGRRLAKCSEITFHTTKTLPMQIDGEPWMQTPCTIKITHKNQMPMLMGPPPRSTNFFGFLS
T2 sequence (Q13574 1-929 isoform Q13574-4): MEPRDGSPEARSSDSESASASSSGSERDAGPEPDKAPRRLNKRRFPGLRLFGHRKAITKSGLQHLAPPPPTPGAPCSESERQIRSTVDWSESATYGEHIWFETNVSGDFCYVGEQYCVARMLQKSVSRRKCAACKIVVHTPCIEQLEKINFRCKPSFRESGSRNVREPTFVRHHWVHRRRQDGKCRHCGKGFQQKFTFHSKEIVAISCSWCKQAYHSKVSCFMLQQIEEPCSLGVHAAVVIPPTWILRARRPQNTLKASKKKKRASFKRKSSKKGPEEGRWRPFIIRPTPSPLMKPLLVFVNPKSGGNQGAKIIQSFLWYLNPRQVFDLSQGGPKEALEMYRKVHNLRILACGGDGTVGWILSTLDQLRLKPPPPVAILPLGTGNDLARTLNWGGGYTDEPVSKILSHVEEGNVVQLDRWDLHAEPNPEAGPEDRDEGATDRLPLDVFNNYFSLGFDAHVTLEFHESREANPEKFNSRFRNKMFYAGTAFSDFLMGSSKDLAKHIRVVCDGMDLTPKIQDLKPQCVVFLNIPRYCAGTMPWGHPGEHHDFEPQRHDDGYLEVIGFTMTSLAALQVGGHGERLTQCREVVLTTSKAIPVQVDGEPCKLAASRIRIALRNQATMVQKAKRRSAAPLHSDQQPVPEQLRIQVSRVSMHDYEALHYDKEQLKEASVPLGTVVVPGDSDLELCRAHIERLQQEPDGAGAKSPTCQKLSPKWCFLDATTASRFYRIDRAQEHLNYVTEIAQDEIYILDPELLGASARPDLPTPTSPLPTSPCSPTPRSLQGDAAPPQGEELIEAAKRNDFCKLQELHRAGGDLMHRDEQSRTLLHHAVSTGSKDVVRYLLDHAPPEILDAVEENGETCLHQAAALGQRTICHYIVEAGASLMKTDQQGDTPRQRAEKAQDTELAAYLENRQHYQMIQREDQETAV

Row | SMILES | IC50 [1] [nM] | IC50 [2] [nM]
1 | CC[C@H]1CN(C(C)c2ccc3ncsc3n2)[C@H](CC)CN1c1cc(=O)n(C)n2cc(CC#N)nc12 (single isomer, unassigned) [Compound A57a] | 7.9 | 6.8
2 | CCc1nc2ccc(C(C)N3C[C@H](CC)N(c4cc(=O)n(C)n5cc(CC#N)nc45)C[C@H]3CC)cc2s1 (single isomer, unassigned) [Compound A100b] | 1060 | 911
3 | CC[C@H]1CN(C(C)c2ccc3nc(C)sc3n2)[C@H](CC)CN1c1c(F)c(=O)n(C)n2cc(CC#N)nc12 (single isomer, unassigned) [Compound A82a] | 26 | 15
4 | CC[C@@H]1CN(c2cc(=O)n(C)n3cc(CC#N)nc23)[C@@H](C)CN1C(C)c1ccc(C2CC2)nc1 (single isomer, unassigned) [Compound A43a] | 285 | 202
5 | CC(c1ccc2nccnc2c1)N1C[C@H](C)N(c2cc(=O)n(C)n3cc(CO)nc23)C[C@H]1C (stereo partly drawn) [Compound A3, 8-((2S,5R)-2,5-dimethyl-4-(1-(quinoxalin-6-yl)ethyl)piperazin-1-yl)-2-(hydroxymethyl)-5-methylimidazo[1,2-b]pyridazin-6(5H)-one] | 2300 | 9000
6 | CC(c1ccc2nccnc2c1)N1C[C@H](C)N(c2cc(=O)n(C)n3cc(CC#N)nc23)C[C@H]1C (mixture of isomers) [Compound A1, 2-(8-((2S,5R)-2,5-dimethyl-4-(1-(quinoxalin-6-yl)ethyl)piperazin-1-yl)-5-methyl-6-oxo-5,6-dihydroimidazo[1,2-b]pyridazin-2-yl)acetonitrile] | 2000 | 78
7 | CC[C@@H]1CN(c2cc(=O)n(C)n3cc(CC#N)nc23)[C@@H](COC)CN1C(C)c1ccc2nc(C)sc2n1 (single isomer, unassigned) [Compound A108a] | 6400 | > 10000
8 | CC(c1ccc2nccnc2c1)N1C[C@H](C)N(c2cc(=O)n(C)n3cc(CC#N)nc23)C[C@H]1C (single isomer, unassigned) [Compound A1a] | 1270 | 35
9 | CC[C@H]1CN(C(C)c2ccc(C(C)(C)F)nc2)[C@H](CC)CN1c1cc(=O)n(C)n2cc(CC#N)nc12 (single isomer, unassigned) [Compound A46b] | 671 | 877
10 | CC[C@@H]1CN(c2cc(=O)n(C)n3cc(C=NOC)nc23)[C@@H](C)CN1C(C)c1ccc2nccnc2c1 (single isomer, unassigned) [Compound A9b] | 74 | 313
11 | CC#CCc1cn2c(n1)c(N1C[C@@H](CC)N(C(C)c3ccc4ncsc4c3F)C[C@@H]1CC)cc(=O)n2C (single isomer, unassigned) [Compound A117a] | 22 | 48
12 | CC[C@H]1CN(C(C)c2ccc3nc(C)sc3n2)[C@H](CC)CN1c1cc(=O)n(C)n2cc(C=NOC)nc12 (single isomer, unassigned) [Compound A124a] | 2000 | > 10000
13 | CC#CCc1cn2c(n1)c(N1C[C@@H](CC)N(C(C)c3ccc4nc(C)sc4c3F)C[C@@H]1CC)cc(=O)n2C (single isomer, unassigned) [Compound A116b] | 708 | > 10000
14 | CC[C@@H]1CN(c2cc(=O)n(C)n3cc(CC#N)nc23)[C@@H](C)CN1C(C)c1ccc2cc(C)sc2n1 (stereo partly drawn) [Compound A87, 2-(8-((2S,5R)-5-ethyl-2-methyl-4-(1-(2-methylthieno[2,3-b]pyridin-6-yl)ethyl)piperazin-1-yl)-5-methyl-6-oxo-5,6-dihydroimidazo[1,2-b]pyridazin-2-yl)acetonitrile] | 112 | 11
15 | CC[C@@H]1CN(c2cc(=O)n(C)n3cc(CC#N)nc23)[C@@H](C)CN1C(C)c1ccc2nccnc2c1 (single isomer, unassigned) [Compound A13a] | 966 | 16
16 | CC(c1ccc2nccnc2c1)N1C[C@H](C)N(c2cc(=O)n(C)n3cc(CS(C)(=O)=O)nc23)C[C@H]1C (stereo partly drawn) [Compound A11, 8-((2S,5R)-2,5-dimethyl-4-(1-(quinoxalin-6-yl)ethyl)piperazin-1-yl)-5-methyl-2-((methylsulfonyl)methyl)imidazo[1,2-b]pyridazin-6(5H)-one] | > 10000 | > 10000
17 | CC(c1ccc2c(c1)OC(C)(C)CO2)N1C[C@H](C)N(c2c(C#N)c(=O)n(C)n3cc(CC#N)nc23)C[C@H]1C (single isomer, unassigned) [Compound A27b] | 486 | 579

Row | SMILES | IC50 [1] [nM] | IC50 [2] [nM]
18 | CC[C@H]1CN(C(C)c2cc3sc(C)nc3cc2F)[C@H](CC)CN1c1cc(=O)n(C)n2cc(CC#N)nc12 (single isomer, unassigned) [Compound A61a] | 400 | 126
19 | CC[C@H]1CN(C(C)c2ccc3nc(C)sc3n2)[C@H](CC)CN1c1cc(=O)n(C)n2cc(CC#N)nc12 (single isomer, unassigned) [Compound A58b] | 13.3 | 7.3
20 | CC[C@H]1CN(C(C)c2ccc3nc(C)sc3c2)[C@H](CC)CN1c1cc(=O)n(C)n2cc(C=NOC)nc12 (single isomer, unassigned) [Compound A123a] | 269 | 4890
21 | CC[C@@H]1CN(c2cc(=O)n(C)n3cc(CC#N)nc23)[C@@H](C)CN1C(C)c1ccc2nc(C)sc2c1F (single isomer, unassigned) [Compound A63b] | 5780 | 1790
22 | CC[C@H]1CN(C(C)c2ccc(C3CC3)cn2)[C@H](CC)CN1c1cc(=O)n(C)n2cc(CC#N)nc12 (stereo partly drawn) [Compound A52, 2-(8-((2S,5R)-4-(1-(5-cyclopropylpyridin-2-yl)ethyl)-2,5-diethylpiperazin-1-yl)-5-methyl-6-oxo-5,6-dihydroimidazo[1,2-b]pyridazin-2-yl)acetonitrile] | 18 | 75
23 | [2H]C([2H])([2H])C(c1ccc2nc(C)sc2c1)N1C[C@H](CC)N(c2cc(=O)n(C([2H])([2H])[2H])n3cc(CC#N)nc23)C[C@H]1CC (single isomer, unassigned) [Compound A95b] | 1530 | 1020
24 | CC[C@H]1CN(C(C)c2ccc3c(c2)OCO3)[C@H](CC)CN1c1cc(=O)n(C)n2cc(CC#N)nc12 (stereo partly drawn) [Compound A71, 2-(8-((2S,5R)-4-(1-(benzo[d][1,3]dioxol-5-yl)ethyl)-2,5-diethylpiperazin-1-yl)-5-methyl-6-oxo-5,6-dihydroimidazo[1,2-b]pyridazin-2-yl)acetonitrile] | 66 | 61
25 | CC(c1ccc2c(c1)OCO2)N1C[C@H](C)N(c2cc(=O)n(C)n3cc(CC#N)nc23)C[C@H]1C (stereo partly drawn) [Compound A29, 2-(8-((2S,5R)-4-(1-(benzo[d][1,3]dioxol-5-yl)ethyl)-2,5-dimethylpiperazin-1-yl)-5-methyl-6-oxo-5,6-dihydroimidazo[1,2-b]pyridazin-2-yl)acetonitrile] | 296 | 474
26 | CC[C@H]1CN(C(C)c2ccc(C(F)(F)F)cc2F)[C@H](CC)CN1c1cc(=O)n(C)n2cc(CC#N)nc12 (single isomer, unassigned) [Compound A92a] | 87 | 52
27 | CC(c1ccc2c(c1)OC(C)(C)CO2)N1C[C@H](C)N(c2c(F)c(=O)n(C)n3cc(CC#N)nc23)C[C@H]1C (mixture of isomers) [Compound A26, 2-(8-((2S,5R)-4-(1-(3,3-dimethyl-2,3-dihydrobenzo[b][1,4]dioxin-6-yl)ethyl)-2,5-dimethylpiperazin-1-yl)-7-fluoro-5-methyl-6-oxo-5,6-dihydroimidazo[1,2-b]pyridazin-2-yl)acetonitrile] | 3090 | 16
28 | CC#CCc1cn2c(n1)c(N1C[C@@H](CC)N(C(C)c3ccc4nc(C)sc4c3)C[C@@H]1CC)cc(=O)n2C (single isomer, unassigned) [Compound A68b] | 527 | > 10000
29 | CC[C@H]1CN(C(CCOC)c2ccc3nc(C)sc3c2)[C@H](C)CN1c1cc(=O)n(C)n2cc(CC#N)nc12 (stereo partly drawn) [Compound A103, 2-(8-((2S,5R)-2-ethyl-4-(3-methoxy-1-(2-methylbenzo[d]thiazol-6-yl)propyl)-5-methylpiperazin-1-yl)-5-methyl-6-oxo-5,6-dihydroimidazo[1,2-b]pyridazin-2-yl)acetonitrile] | 701 | 138
30 | CC(C#N)c1cn2c(n1)c(N1C[C@@H](C)N(C(C)c3ccc4nccnc4c3)C[C@@H]1C)cc(=O)n2C (stereo partly drawn) [Compound A6, 2-(8-((2S,5R)-2,5-dimethyl-4-(1-(quinoxalin-6-yl)ethyl)piperazin-1-yl)-5-methyl-6-oxo-5,6-dihydroimidazo[1,2-b]pyridazin-2-yl)propanenitrile] | > 10000 | > 10000
31 | CC[C@H]1CN(C(C)c2ccc3scnc3c2F)[C@H](CC)CN1c1cc(=O)n(C)n2cc(CC#N)nc12 (single isomer, unassigned) [Compound A66b] | 1640 | 1440
32 | CC[C@H]1CN(C(C)c2ccc3ncsc3c2)[C@H](CC)CN1c1cc(=O)n(C)n2cc(CC#N)nc12 (single isomer, unassigned) [Compound A53a] | 11 | 4
33 | [2H]C([2H])([2H])c1nc2ccc(C(C)N3C[C@H](CC)N(c4cc(=O)n(C)n5cc(CC#N)nc45)C[C@H]3CC)cc2s1 (single isomer, unassigned) [Compound A96b] | 2080 | 861
